For series [1], the system named is A431 cells. The series can be described thus: MAL-induced PpIX accumulation, fluorescence plate reader. Format: cell-based, human. The method, then:
After treatment, the cells were washed with PBS and a final 100 μl PBS was pipetted into each well for fluorescence readings. The fluorescence of PpIX was measured using a BMG Pherastar plate reader with a 410 nm excitation filter and a 630 nm emission filter.
A431 cells were treated concurrently with slow-releasing hydrogen sulfide donors (1 μM) for 5 hours and MAL (1 mM) for 3 hours, after which PpIX accumulation was measured by fluorescence plate reader (excitation 410 nm, […]). Co-treatment with CP94 (50 μM) was used as a positive control and for comparison.

For series [2], the system named is A431 cells. Description: Mitochondrial reactive oxygen species generation during photodynamic irradiation, MitoSOX flow cytometry. Type of series: cell-based, human. As to conditions: for MitoSOX fluorescence, percentage of untreated cells: 3 hours, irradiated. Put shortly:
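A431 cells received AP39-C10 (10, 100 or 1000 nM) for 5 h, MAL (1 mM) for 3 h and MitoSOX (2.5 μM) for 1 h, then were irradiated for 5 min (630 nm, 25 J/cm^2). Mitochondrial oxidant production was read immediately as MitoSOX fluorescence by flow cytometry and expressed as percent of untreated controls.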

The subject of series [3] is A431 cells. Description: MAL-induced PpIX accumulation, fluorescence plate reader. Type of series: cell-based, human. As to conditions: 3 hours.
The subject of series [4] is A431 cells. Description: Photodynamic cell killing in the presence of inhibitors of the thioredoxin antioxidant system or nitroxides (annexin V-FITC/propidium iodide flow cytometry). Format: cell-based, human. As for the experimental part: After this treatment, the cells were irradiated for 5 min (630 nm, 25 J/cm^2), then washed with PBS and the culture medium was replaced, after which the cells were placed back under 2% O2 and incubated for a further 3 h. Following this final incubation, cell death was analysed by annexin V-FITC and propidium iodide staining in conjunction with flow cytometry.
(§1) Cell death analysis by flow cytometry was carried out using the annexin V-FITC/propidium iodide protocol. This protocol allows a quantitative assessment of cell death, particularly specific modes of death, and involves staining the cells with fluorescein isothiocyanate-conjugated annexin A5 (annexin V-FITC) and propidium iodide (PI). Positive staining with annexin V-FITC alone indicates an apoptotic cell; positive staining with PI alone indicates a necrotic cell and dual staining of both annexin V and PI indicates a “late apoptotic” cell.
(§2) From each flask being assessed, the old medium was removed and placed into a corresponding individual 15 ml Falcon tube in order to collect any cells that may have detached from the surface. The flask was washed once with 1 ml PBS; also deposited in the Falcon tubes. Trypsin (500 μl) was added to each flask and the flasks were returned to the incubator with their caps loosened. Cell detachment was monitored using an inverted light microscope, until 50% of the cells were detached. The flasks were then lightly tapped to detach the remainder of the cells. Medium (2 ml) was added to each flask in order to neutralise the trypsin present before being removed and dispensed into the Falcon tubes. One more wash with PBS was carried out in order to ensure any cells left in the flasks were collected. The Falcon tubes were then centrifuged at 490 g for 3 min, forming a pellet at the bottom of the tube. The supernatant was discarded, and the cells were re-suspended in 5 ml of PBS, in order to wash them, before being centrifuged again at 490 g for 3 min. The wash stage was carried out once more before re-suspending the cell pellet in 95 μl of ice cold calcium (Ca^2+) buffer (50 mM HEPES, 700 mM NaCl, 12.5 mM CaCl2, pH 7.4) and adding 5 μl 12.5 μg/ml of annexin V-FITC (final concentration, 1.25 μg/ml), under reduced light conditions to prevent bleaching of the FITC. The Falcon tubes were placed on ice and in the dark for 15 min to allow annexin V staining. After 15 min, 860 μl of Ca^2+ buffer (10 mM Hepes adjusted to pH 7.4, 140 mM NaCl and 2.5 mM CaCl2) was added, followed by 40 μl of 1 mg/ml PI in water (final concentration, 0.04 mg/ml) to give a final volume of 1 ml. The samples were then ready to be assessed by flow cytometry.
(§3) The following flow cytometry process of sample detection was used. When using annexin V-FITC and PI, the detectors being used were FL1 (λmax=520 nm) and FL3 (λmax=670 nm), respectively, each with their own logarithmic histogram generated by the software. The intensity of the fluorescence detected is measured on a logarithmic scale on the x-axis and the y-axis represents the number of cells detected at a given fluorescence intensity. A plot of FL1/FL3 produces a 4-quadrant graph, where unstained and untreated cells are located in the bottom left quadrant, representing any cells found in the 1st decade of the single plot logarithmic histograms. Single staining with annexin V-FITC and PI are located in the bottom right and top left quadrant, respectively, and dual staining is located in the top right quadrant. These quadrants represent any cells detected above the 1st decade of the logarithmic histograms.
(Flow cytometry measures light scatter and fluorescence of single cells or particles in a stream.)

The test system of series [5] is A431 cells. The essentials: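 In the PDT set-up, cells held at 2% O2 got 1 mM MAL with or without compound for 3 h, then 3 h recovery under 2% O2. Compound-alone cytotoxicity used cells seeded at 3×10^5/well for 24 h, treated for the relevant time.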
A further series addresses T1, thioredoxin reductase (Homo sapiens, UniProt Q16881).
T1 sequence (Q16881 151-649 limits assumed): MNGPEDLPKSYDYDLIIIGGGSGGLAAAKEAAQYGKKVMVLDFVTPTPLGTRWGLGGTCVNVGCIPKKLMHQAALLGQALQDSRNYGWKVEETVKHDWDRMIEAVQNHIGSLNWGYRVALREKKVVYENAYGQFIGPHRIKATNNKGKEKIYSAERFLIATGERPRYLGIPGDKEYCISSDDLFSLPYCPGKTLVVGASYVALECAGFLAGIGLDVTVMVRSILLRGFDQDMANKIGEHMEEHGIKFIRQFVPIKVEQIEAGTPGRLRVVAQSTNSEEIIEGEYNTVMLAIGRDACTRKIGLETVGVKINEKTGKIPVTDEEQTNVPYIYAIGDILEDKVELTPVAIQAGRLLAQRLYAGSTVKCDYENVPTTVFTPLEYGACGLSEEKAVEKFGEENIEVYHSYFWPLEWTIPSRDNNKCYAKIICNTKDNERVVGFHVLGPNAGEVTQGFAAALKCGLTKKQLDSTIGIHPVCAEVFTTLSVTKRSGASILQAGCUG
Particulars: cited from earlier work.

Series [6] relates to A431 cells. The series can be described thus: cells. Particulars: Homo sapiens, A-431, light or radiation study, 3 h, read-out: cell death, 1 mM MAL 3 h and irradiation (630 nm, 25 J/cm2) in the absence of any SRHD. Format: cell-based. As for the experimental part:
A431 cells (human epithelial squamous cell carcinoma cells) were seeded at a density of 1×10^6 cells/ml in T12.5 cm^2 flasks and incubated under 2% O2 for 48 h prior to treatment. After 24 h, the culture medium was replaced and the cells were placed back into the incubators under 2% O2. Following this incubation period, the culture medium was then removed and the flasks were washed with PBS. The cells were then treated with one of the SRHDs and incubated at 2% O2 for 2 h, after which MAL was added to a final concentration of 1 mM and the cells were incubated at 2% O2 for 3 h. This meant in total, the cells were treated with the SRHDs for 5 h.
Following this final incubation, cell death was analysed by annexin V-FITC and propidium iodide staining in conjunction with flow cytometry.
as §1
as §2, with “The wash stage was carried out once more before re-suspending the cell pellet in 95 μl of ice cold calcium (Ca^2+) buffer (50 mM HEPES, 700 mM NaCl, 12.5 mM CaCl2, pH 7.4) and adding 5 μl 12.5 μg/ml of annexin V-FITC (final concentration, 1.25 μg/ml), under reduced light conditions to prevent bleaching of the FITC.” left out, “After 15 min, 860 μl of Ca^2+ buffer (10 mM Hepes adjusted to pH 7.4, 140 mM NaCl and 2.5 mM CaCl2) was added, followed by 40 μl of 1 mg/ml PI in water (final concentration, 0.04 mg/ml) to give a final volume of 1 ml.” left out
as §3

Consider three compounds from US10149907B2, “Combinations of a photosensitizer with a hydrogen sulfide donor, thioredoxin inhibitor or nitroxide for use in photodynamic therapy” (UNIVERSITY OF EXETER, priority 2014, dated 2018).

Each structure is given as a SMILES string. Several values for one entry are separate records, joined by “and”; a condition that tells them apart may be missing. Equal values may be shown once. Read-outs that look alike come from different tables or passages of the source.

With `CCc1c(O)c(O)cc[n+]1CC.[Cl-]` [CP94], the “effect on PpIX accumulation compared to 1 mM MAL alone” value in the series with A431 cells [1] (CP94 50 μM + MAL 1 mM, positive control) is given as “significantly increased PpIX accumulation”. In the series on A431 cells [2] (MAL 1 mM + co-treatment 50 μM), the “MitoSOX fluorescence, percentage of untreated cells” value is on record as 198.4±7.7%. For the same compound, the “increase in PpIX accumulation compared to MAL alone” value in the series on A431 cells [3] (50 μM + MAL 1 mM, FIG. 35) amounted to 223.2±26.1%. Besides, the “peak response, increase in PpIX accumulation compared to MAL alone” value with A431 cells [3] (peak at TEMPO 5 mM, MitoTEMPO 100 μM, CP94 100 μM, MAL 1 mM) is recorded as 228.1±42.3%.

As to `O=[N+]([O-])c1ccc(Cl)c([N+](=O)[O-])c1` [DNCB, 1-chloro-2,4-dinitrobenzene], the “modes of cell death” value with A431 cells [4] (1 mM MAL + DNCB 10 μM or auranofin 100 nM + irradiation, compared to MAL and irradiation, FIG. 10) is given as “primarily increased necrotic cell death”. The cell death in the series on A431 cells [4] (1 mM MAL + co-treatment 10 μM, 3 h, irradiation) is 46.3±4.0% and 43.8±3.9%. Moreover, the “potentiating effect on MAL photodynamic cell killing” value in the series on A431 cells [4] (summary of Examples 2A, 3A) is on record as “mild potentiating effect”. The “cell viability, percentage of untreated control” value in the series with A431 cells [5] (1 μM with 1 mM MAL, 3 hours) came to 97.4±6.9%; in the series with A431 cells [5] (5 μM with 1 mM MAL, 3 hours), 99.4±7.3%; in the series on A431 cells [5] (10 μM with 1 mM MAL, 3 hours) it was 98.6±6.2%; in the series with A431 cells [5] (25 μM with 1 mM MAL, 3 hours), 79.0±4.3%; in the series with A431 cells [5] (50 μM with 1 mM MAL, 3 hours) it was 57.7±1.4%; in the series with A431 cells [5] (50 μM, 24 hours) it was 11.7±0.8%. Moreover, the “cell viability, percentage of untreated control” value with A431 cells [5] (100 μM, 24 hours) came out at 14.8±4.2%. Besides, the “concentration up to which well tolerated / no cytotoxicity” value with A431 cells [5] (24 hours) is reported as “up to 10 μM”. Moreover, the “MitoSOX fluorescence, percentage of untreated cells” value with A431 cells [2] (MAL 1 mM + co-treatment 10 μM) is listed as 209.5±3.2%. Further, the “inactivation of reduced thioredoxin reductase” value on thioredoxin reductase (50 nM reduced enzyme, 5 minutes incubation with 100 μM DNCB, presence of NAD(P)H) was “Complete inactivation”. In addition, at thioredoxin reductase, the “inactivation of thioredoxin reductase faster than the alkylation of GSH” value is ~10,000 fold.

On to `COC(=O)CCC(=O)CN` [MAL, methyl aminolaevulinate], for which the cytotoxicity at 1000 µM in the series with A431 cells [6] was determined as 27.5 ± 5.5%. The cell death in the series with A431 cells [4] (1 mM MAL 3 h and irradiation (630 nm, 25 J/cm2) alone, no co-treatment) was 32.5±3.6% and 29.1±3.8% and 34.4±3.2% and 26.8±1.9% and 24.6±4.2%. Also, the “modes of cell death” value in the series on A431 cells [4] (1 mM MAL and irradiation alone, compared to untreated controls) was “increase in all types of cell death”. The “PpIX accumulation compared to untreated controls” value in the series with A431 cells [1] (MAL 1 mM, 3 hours) is reported as “significantly increased PpIX accumulation compared to untreated controls”. For the same compound, the “MitoSOX fluorescence, percentage of untreated controls” value in the series with A431 cells [2] (MAL 1 mM alone, photoirradiated) is 193.7±7.3% and 220.1±8.5% and 143.3±4.8% and 207.4±16.7%.
